Values quoted from earlier work in paper PMC9516332 (Frontiers in Oncology, 2022).
Like-named read-outs stand apart in the source and are kept apart here.

Legend:
Details in all cases: cited from earlier work
[1] = target: panel of 255 wild-type kinases (Homo sapiens, UniProt Q9BUB5)
[2] = target: T1, panel of 255 wild-type kinases (Homo sapiens, UniProt Q8TD19)
T1 sequence (Q8TD19 1-979): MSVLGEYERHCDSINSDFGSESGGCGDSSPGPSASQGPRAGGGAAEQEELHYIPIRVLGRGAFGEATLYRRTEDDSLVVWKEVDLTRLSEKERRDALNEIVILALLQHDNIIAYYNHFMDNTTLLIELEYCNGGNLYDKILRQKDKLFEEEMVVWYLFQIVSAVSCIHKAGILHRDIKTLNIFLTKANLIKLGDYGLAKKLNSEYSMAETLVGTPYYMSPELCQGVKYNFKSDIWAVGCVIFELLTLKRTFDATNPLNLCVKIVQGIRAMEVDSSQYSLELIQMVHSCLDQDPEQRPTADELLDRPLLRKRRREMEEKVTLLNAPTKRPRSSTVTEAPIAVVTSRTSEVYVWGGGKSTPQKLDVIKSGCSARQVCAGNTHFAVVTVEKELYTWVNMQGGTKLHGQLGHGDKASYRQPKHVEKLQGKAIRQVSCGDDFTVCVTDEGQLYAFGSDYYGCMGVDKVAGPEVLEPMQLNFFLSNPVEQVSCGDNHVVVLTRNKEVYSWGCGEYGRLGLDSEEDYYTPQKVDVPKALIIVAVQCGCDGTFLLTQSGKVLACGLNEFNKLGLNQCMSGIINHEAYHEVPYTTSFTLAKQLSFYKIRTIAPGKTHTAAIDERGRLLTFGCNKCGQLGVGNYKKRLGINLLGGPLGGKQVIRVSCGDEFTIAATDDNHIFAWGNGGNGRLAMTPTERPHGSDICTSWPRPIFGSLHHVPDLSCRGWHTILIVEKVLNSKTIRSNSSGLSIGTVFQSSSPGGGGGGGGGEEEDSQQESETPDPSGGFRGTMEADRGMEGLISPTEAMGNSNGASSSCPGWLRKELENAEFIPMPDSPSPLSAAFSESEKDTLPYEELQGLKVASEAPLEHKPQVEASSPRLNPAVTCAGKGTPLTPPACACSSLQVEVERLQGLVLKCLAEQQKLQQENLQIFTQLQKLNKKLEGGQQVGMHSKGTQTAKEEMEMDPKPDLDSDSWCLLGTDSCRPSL

[3] = target: panel of 255 wild-type kinases (Homo sapiens, UniProt P57059)
[4] = target: T2, panel of 255 wild-type kinases (Homo sapiens, UniProt Q8NE63)
T2 sequence (Q8NE63 1-616): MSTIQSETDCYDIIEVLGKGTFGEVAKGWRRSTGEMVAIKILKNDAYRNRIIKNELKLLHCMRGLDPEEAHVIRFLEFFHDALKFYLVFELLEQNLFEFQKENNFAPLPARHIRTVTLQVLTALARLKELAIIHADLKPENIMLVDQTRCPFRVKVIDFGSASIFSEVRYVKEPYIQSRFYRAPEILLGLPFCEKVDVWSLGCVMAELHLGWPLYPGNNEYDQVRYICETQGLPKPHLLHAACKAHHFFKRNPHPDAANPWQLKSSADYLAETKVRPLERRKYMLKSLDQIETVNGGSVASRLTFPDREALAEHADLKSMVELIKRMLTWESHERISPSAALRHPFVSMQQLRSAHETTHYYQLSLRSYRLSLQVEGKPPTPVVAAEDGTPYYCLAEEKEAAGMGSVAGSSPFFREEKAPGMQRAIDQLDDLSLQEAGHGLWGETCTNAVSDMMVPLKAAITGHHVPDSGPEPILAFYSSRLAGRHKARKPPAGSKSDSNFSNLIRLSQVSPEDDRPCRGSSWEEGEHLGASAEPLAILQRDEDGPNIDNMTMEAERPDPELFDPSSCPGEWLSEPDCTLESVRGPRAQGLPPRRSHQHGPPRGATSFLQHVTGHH

[5] = target: panel of 255 wild-type kinases (Homo sapiens, UniProt P48729)
[6] = target: panel of 255 wild-type kinases (Homo sapiens, UniProt Q96RG2)
[7] = target: panel of 255 wild-type kinases (Homo sapiens, UniProt Q9Y2H1)
[8] = target: panel of 255 wild-type kinases (Homo sapiens, UniProt Q9H2G2)
[9] = target: panel of 255 wild-type kinases (Homo sapiens, UniProt O96017)
[10] = MNK1, 1 µmol/L single concentration, ref DOI: 10.1158/1535-7163.MCT-18-0877
[11] = NEK9, 1 µmol/L single concentration, ref DOI: 10.1158/1535-7163.MCT-18-0877
[12] = kinase SIK, 1 µmol/L single concentration, ref DOI: 10.1158/1535-7163.MCT-18-0877
[13] = kinase HIPK4, 1 µmol/L single concentration, ref DOI: 10.1158/1535-7163.MCT-18-0877
[14] = kinase CK1α, 1 µmol/L single concentration, ref DOI: 10.1158/1535-7163.MCT-18-0877
[15] = PASK, 1 µmol/L single concentration, ref DOI: 10.1158/1535-7163.MCT-18-0877
[16] = NDR2, 1 µmol/L single concentration, ref DOI: 10.1158/1535-7163.MCT-18-0877
[17] = kinase SLK, 1 µmol/L single concentration, ref DOI: 10.1158/1535-7163.MCT-18-0877
[18] = CHK2 kinase assay, 1 µmol/L single concentration, ref DOI: 10.1158/1535-7163.MCT-18-0877
[19] = MNK1, 1 µmol/L single concentration, ref DOI: 10.1371/journal.pone.0092146
[20] = NEK9, 1 µmol/L single concentration, ref DOI: 10.1371/journal.pone.0092146
[21] = kinase SIK, 1 µmol/L single concentration, ref DOI: 10.1371/journal.pone.0092146
[22] = kinase HIPK4, 1 µmol/L single concentration, ref DOI: 10.1371/journal.pone.0092146
[23] = kinase CK1α, 1 µmol/L single concentration, ref DOI: 10.1371/journal.pone.0092146
[24] = PASK, 1 µmol/L single concentration, ref DOI: 10.1371/journal.pone.0092146
[25] = NDR2, 1 µmol/L single concentration, ref DOI: 10.1371/journal.pone.0092146
[26] = kinase SLK, 1 µmol/L single concentration, ref DOI: 10.1371/journal.pone.0092146
[27] = CHK2 kinase assay, 1 µmol/L single concentration, ref DOI: 10.1371/journal.pone.0092146

| Structure (SMILES) | %-inhibition, MNK1 [1, 10] [%] | %-inhibition, NEK9 [2, 11] [%] | %-inhibition at 1 µmol/L, SIK [3, 12] [%] | %-inhibition at 1 µmol/L, HIPK4 [4, 13] [%] | %-inhibition at 1 µmol/L, CK1α [5, 14] [%] | %-inhibition, PASK [6, 15] [%] | %-inhibition, NDR2 [7, 16] [%] | %-inhibition at 1 µmol/L, SLK [8, 17] [%] | %-inhibition CHK2 [9, 18] [%] | %-inhibition, MNK1 [1, 19] [%] | %-inhibition, NEK9 [2, 20] [%] | %-inhibition at 1 µmol/L, SIK [3, 21] [%] | %-inhibition at 1 µmol/L, HIPK4 [4, 22] [%] | %-inhibition at 1 µmol/L, CK1α [5, 23] [%] | %-inhibition, PASK [6, 24] [%] | %-inhibition, NDR2 [7, 25] [%] | %-inhibition at 1 µmol/L, SLK [8, 26] [%] | %-inhibition CHK2 [9, 27] [%] | other results |
| --- | --- | --- | --- | --- | --- | --- | --- | --- | --- | --- | --- | --- | --- | --- | --- | --- | --- | --- | --- |
| CC#CC(=O)N1CCC[C@H]1c1nc(-c2ccc(C(=O)Nc3ccccn3)cc2)c2c(N)nccn12 [acalabrutinib] | 12 | -3.18 | 0.256 | -10 | 10 | -5.37 | -6.41 | 1.61 | -6 | – | – | – | – | – | – | – | – | – | – |
| CCc1cc2c(cc1N1CCC(N3CCOCC3)CC1)C(C)(C)c1[nH]c3cc(C#N)ccc3c1C2=O [alectinib] | 18 | 0.368 | 12 | 26 | 22 | -2.6 | 4 | 12 | 96 | – | – | – | – | – | – | – | – | – | – |
| COc1cc(N2CCC(N3CCN(C)CC3)CC2)ccc1Nc1ncc(Cl)c(Nc2ccccc2P(C)(C)=O)n1 [brigatinib] | – | – | – | – | – | – | – | – | – | – | – | – | – | – | – | – | – | – | %-inhibition, MNK1 [1]: 16%; %-inhibition, NEK9 [2]: 70%; %-inhibition at 1 µmol/L, SIK [3]: 99%; %-inhibition at 1 µmol/L, HIPK4 [4]: 81%; %-inhibition at 1 µmol/L, CK1α [5]: 11%; %-inhibition, PASK [6]: -5%; %-inhibition, NDR2 [7]: 62%; %-inhibition at 1 µmol/L, SLK [8]: 95%; %-inhibition CHK2 [9]: 96% |
| Cc1cc(Nc2ncc(Cl)c(Nc3ccccc3S(=O)(=O)C(C)C)n2)c(OC(C)C)cc1C1CCNCC1 [ceritinib] | -1.9 | 9 | 15 | 36 | 7 | 1.28 | 14 | 64 | 88 | – | – | – | – | – | – | – | – | – | – |
| O=C(c1ccc(F)c(F)c1Nc1ccc(I)cc1F)N1CC(O)([C@@H]2CCCCN2)C1 [cobimetinib] | 14 | -2.32 | 0.384 | 1.8 | 2 | 1.07 | 2.54 | 6 | -0.103 | – | – | – | – | – | – | – | – | – | – |
| C[C@@H](Oc1cc(-c2cnn(C3CCNCC3)c2)cnc1N)c1c(Cl)ccc(F)c1Cl [crizotinib] | – | – | – | – | – | – | – | – | – | 0 | 57 | 26 | 31 | -1.36 | 1 | -4.76 | 100 | 9 | – |
| CC(C)(C)c1nc(-c2cccc(NS(=O)(=O)c3c(F)cccc3F)c2F)c(-c2ccnc(N)n2)s1 [dabrafenib] | – | – | – | – | – | – | – | – | – | 20 | 101 | 100 | 92 | 13 | 1.12 | -2 | 12 | 7 | – |
| C=CC(=O)N1CCC[C@@H](n2nc(-c3ccc(Oc4ccccc4)cc3)c3c(N)ncnc32)C1 [ibrutinib] | 15 | -3.28 | 8 | 2.6 | -2 | -0.0437 | 3.47 | 12 | 14 | – | – | – | – | – | – | – | – | – | – |
| CO[C@@H]1[C@H](N(C)C(=O)c2ccccc2)C[C@H]2O[C@]1(C)n1c3ccccc3c3c4c(c5c6ccccc6n2c5c31)C(=O)NC4 [midostaurin] | 50 | 48 | 99 | 63 | 3.51 | 6 | 22 | 85 | 36 | – | – | – | – | – | – | – | – | – | – |
| C=CC(=O)Nc1cc(Nc2nccc(-c3cn(C)c4ccccc34)n2)c(OC)cc1N(C)CCN(C)C [osimertinib] | 99 | 9 | 22 | 92 | 4.46 | 2.58 | 10 | 17 | 6 | – | – | – | – | – | – | – | – | – | – |
| CC(=O)Nc1cccc(-n2c(=O)n(C3CC3)c(=O)c3c(Nc4ccc(I)cc4F)n(C)c(=O)c(C)c32)c1 [trametinib] | – | – | – | – | – | – | – | – | – | -3 | -3 | -3 | 2.78 | 3 | -0.187 | -1.48 | -2.6 | -5 | – |
| CCCS(=O)(=O)Nc1ccc(F)c(C(=O)c2c[nH]c3ncc(-c4ccc(Cl)cc4)cc23)c1F [vemurafenib] | – | – | – | – | – | – | – | – | – | 23 | -2.2 | 24 | -0.437 | -4.34 | 2.35 | -2.51 | 43 | 6.32 | – |
